Test results as given in US20240067639A1, “SMALL MOLECULES THAT TARGET THE RNA THAT CAUSES ALS” (EXPANSION THERAPEUTICS, INC., priority 2020, published 2024).
Where two headings read alike, the source gives them in different places.

What was measured:
[1] = system: r(G4C2)^exp; details: background statement; cited from earlier work
[2] = system: cultured cells and induced neurons; details: cited from earlier work
[3] = system: RAN translation of (G4C2)66-No ATG-GFP in HEK293T cells; assay: Cell-based assay of RAN translation inhibition (GFP/mCherry reporter); details: Homo sapiens, HEK-293T, read-out: RANT IC50
[4] = molecular target: Biotin-labeled RNA (target RNA); assay: BLI affinity measurement (ForteBio Octet RED384); format: binding; details: Table G

## Cc1c2cc[n+](CCN3CCCCC3)cc2c(C)c2c1[nH]c1ccc(O)cc12 [Compound 1a]
[1]
  binding to r(G4C2)exp: binds
[2]
  inhibition of RAN translation and foci formation: inhibits RAN translation and foci formation

## Cc1c2ccncc2cc2c3ccccc3n(CC3=NCCN3)c12 [Compound 317, 6-((4,5-dihydro-1H-imidazol-2-yl)methyl)-5-methyl-6H-pyrido[4,3-b]carbazole]
[3]; Table G, HEK293T
  IC50: 5 µM
[4]
  Kd: 5 µM

## Cc1c2ccncc2cc2c3ccccc3n(CCN3CCCCC3)c12 [Compound 318, 5-methyl-6-(2-(piperidin-1-yl)ethyl)-6H-pyrido[4,3-b]carbazole]
[3]
  IC50: 16 µM
[4]
  Kd: 6 µM

## Cc1c2ccncc2cc2c3ccccc3n(CCN3CCOCC3)c12 [Compound 319, 4-(2-(5-methyl-6H-pyrido[4,3-b]carbazol-6-yl)ethyl)morpholine]
[3]
  IC50: 12 µM
[4]
  Kd: 7.8 µM

## COc1ccc2c(c1)c1cc3cnccc3c(C)c1n2CCN1CCOCC1 [Compound 320, 4-(2-(9-methoxy-5-methyl-6H-pyrido[4,3-b]carbazol-6-yl)ethyl)morpholine]
[3]
  IC50: 1.9 µM
[4]
  Kd: 100 µM

## CNCCOc1ccc2c(c1)c1cc3cnccc3c(C)c1n2C [Compound 321, 2-((5,6-dimethyl-6H-pyrido[4,3-b]carbazol-9-yl)oxy)-N-methylethanamine]
[3]; Table G, HEK293T
  IC50: 3.5 µM
[4]
  Kd: 0.71 µM
